# Patent publication US7307063B2, “Melanocortin metallopeptides for treatment of sexual dysfunction” (Palatin Technologies, Inc., priority 2001, dated 2007)
# Non-standard residues stand in square brackets, D forms with d. No end group written: not given here. *: point of attachment. Bip = N[C@@H](Cc1ccc(-c2ccccc2)cc1)C(=O)O; dBip = N[C@H](Cc1ccc(-c2ccccc2)cc1)C(=O)O; Heptanoyl = CCCCCCC(=O)*; Nle = CCCC[C@H](N)C(=O)O; Bn = c1ccc(C*)cc1
# Tests used:
# MC1-R = target: T1, MC1-R (Mus musculus, UniProt Q01727); test: Competitive binding assay: inhibition of 125I-NDP-α-MSH binding to membranes from B16-F10 mouse melanoma cells; conditions: Table 6, mean of triplicate
# T1 construct: MC1-R membranes were isolated from B16—F10 mouse melanoma cells; endogenous in cells; host or cells: B16-F10 mouse melanoma cells
# Experimental: (§1) Rhenium-complexed metallopeptides of the formulas given in Table 1 were prepared, with the metallopeptides complexed with rhenium using the rhenium transfer agent ReOCl3(PPh3)2 in the presence of 1,8-Diazabicyclo[5,4,0] undec-7-ene as a base, as disclosed in International Application PCT/US00/16396, filed Jun. 14, 2000, Melanocortin Metallopeptide Constructs, Combinatorial Libraries and Applications, incorporated by reference herein. Affinities of compounds were measured using membranes from HEK-293 cells containing cloned human melanocortin receptor subtypes 3, 4 and 5. MC1-R membranes were isolated from B16—F10 mouse melanoma cells. The assay tube also contained a chosen concentration of the test peptide of this invention, complexed to a rhenium metal ion as indicated, for determining its efficacy in inhibiting the binding of ^125I-NDP-α-MSH to its receptor. Non-specific binding was measured by complete inhibition of binding of ^125I-NDP-α-MSH in the assay with the presence of 1 μM α-MSH. 100% specific binding was defined as the difference in radioactivity (cpm) bound to cell membranes in the absence and presence of 1 μM α-MSH. The cpm obtained in presence of test compounds were normalized with respect to 100% specific binding to determine the percent inhibition of ^125I-NDP-α-MSH binding.
# (§2) Peptide sequences set forth in Table 6 were prepared using conventional synthetic means. The resulting sequences were rhenium-complexed to form metallopeptides, with the metallopeptides complexed with rhenium using the rhenium transfer agent ReOCl3(PPh3)2 in the presence of 1,8-Diazabicyclo[5,4,0] undec-7-ene as a base. Percent inhibition was determined as in Example 1 using the Re-complexed metallopeptides, using the same methods as described therein. All measures are means of triplicate determinations.
# MC4-R = target: T2, MC4-R (Homo sapiens, UniProt P32245); test: Competitive binding assay: inhibition of 125I-NDP-α-MSH binding to HEK-293 membranes with cloned human receptor subtype 4; conditions: Table 6, mean of triplicate
# T2 construct: expressed in transfected cells; host or cells: HEK-293
# Experimental: as §1, §2
# hMC2-R = target: T3, hMC2-R (Homo sapiens, UniProt P41968); test: Competitive binding assay of additional compounds, Table 6 hMC2-R; conditions: 1 μM, mean of triplicate
# T3 construct: expressed in transfected cells; host or cells: HEK-293
# Experimental: [The source words this procedure for another target and reports this target under the same test.] as §1, §2
# [1] = 1 μM, listed as 3′-Bromo phenyl acetyl-Arg-Arg-D-Phe(4′-Cl)-Cys-Nal 2′-NH2, 1 µM
# [2] = 1 μM, listed as Hept-Ser(Bzl)-D-Nal 2′-Arg-Nal 2′-Cys-NH2, 1 µM
# T2 sequence (P32245 whole entry): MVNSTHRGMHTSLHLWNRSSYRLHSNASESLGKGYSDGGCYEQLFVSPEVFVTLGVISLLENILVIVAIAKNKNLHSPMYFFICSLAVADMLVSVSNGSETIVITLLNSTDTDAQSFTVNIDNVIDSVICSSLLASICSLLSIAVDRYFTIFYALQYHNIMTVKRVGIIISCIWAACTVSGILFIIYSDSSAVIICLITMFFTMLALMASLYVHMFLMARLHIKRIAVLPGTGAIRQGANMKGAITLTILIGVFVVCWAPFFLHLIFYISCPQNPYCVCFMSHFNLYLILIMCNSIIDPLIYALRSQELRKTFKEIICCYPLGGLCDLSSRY
# T1 sequence (Q01727 whole entry): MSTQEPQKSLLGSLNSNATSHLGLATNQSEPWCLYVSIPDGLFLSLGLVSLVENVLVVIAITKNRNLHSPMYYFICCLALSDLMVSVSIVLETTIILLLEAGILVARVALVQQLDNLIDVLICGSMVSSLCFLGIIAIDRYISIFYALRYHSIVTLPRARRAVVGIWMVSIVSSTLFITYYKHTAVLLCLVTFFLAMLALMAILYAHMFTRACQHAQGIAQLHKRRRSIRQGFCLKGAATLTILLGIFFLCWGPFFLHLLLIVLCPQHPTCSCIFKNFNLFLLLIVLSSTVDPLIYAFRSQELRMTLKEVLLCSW
# T3 sequence (P41968 whole entry): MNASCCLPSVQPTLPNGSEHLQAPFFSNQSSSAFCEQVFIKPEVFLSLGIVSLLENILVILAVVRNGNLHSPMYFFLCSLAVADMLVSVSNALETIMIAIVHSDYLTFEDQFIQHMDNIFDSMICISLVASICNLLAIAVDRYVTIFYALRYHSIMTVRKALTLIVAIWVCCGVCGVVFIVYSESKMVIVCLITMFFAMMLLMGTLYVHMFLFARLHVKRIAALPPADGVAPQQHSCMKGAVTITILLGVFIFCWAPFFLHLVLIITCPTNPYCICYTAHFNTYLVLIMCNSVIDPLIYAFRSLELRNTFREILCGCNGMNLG
Substance,% Inhibition of Binding MC1-R (MC1-R; 1 μM),% Inhibition of Binding hMC4-R (MC4-R; 1 μM),also measured
3′-Br Phenyl acetyl-Arg-Arg-D-Phe(4′-Cl)-Cys-Nal 2′-NH2,90%,96%,"% Inhibition of Binding MC1-R (MC1-R; [1]): 79%; % Inhibition of Binding hMC4-R (MC4-R; [1]): 94%; % Inhibition of Binding hMC2-R (hMC2-R): 95%; % Inhibition of Binding hMC2-R (hMC2-R; listed as 3′-Bromo phenyl acetyl-Arg-Arg-D-Phe(4′-Cl)-Cys-Nal 2′-NH2, 1 µM): 55%"
Ac-[Nle]AH[dBip]RCW-NH2,72%,,% Inhibition of Binding hMC2-R (hMC2-R): 100%
Ac-[Nle]AH[dBip]RC[Bip]-NH2,77%,,% Inhibition of Binding hMC2-R (hMC2-R): 100%
Ac-[Nle]AH[dBip]RWC-NH2,99%,,% Inhibition of Binding hMC2-R (hMC2-R): 100%
Ac-[Nle]AH[dBip]R[Bip]C-NH2,95%,,% Inhibition of Binding hMC2-R (hMC2-R): 100%
Ac-[Nle]AH[dF]RC[Bip]-NH2,82%,,% Inhibition of Binding hMC2-R (hMC2-R): 100%
Ac-[Nle]AH[dF]R[Bip]C-NH2,35%,,% Inhibition of Binding hMC2-R (hMC2-R): 100%
Heptanoyl-S(Bn)[dBip]RWC-NH2,84%,,% Inhibition of Binding hMC2-R (hMC2-R): 0%
Heptanoyl-S(Bn)[dBip]R[Bip]C-NH2,30%,,% Inhibition of Binding hMC2-R (hMC2-R): 0%
Heptanoyl-Ser(Bzl)-D-Nal 2′-Arg-Nal 2′-Cys-NH2,28%,91%,"% Inhibition of Binding MC1-R (MC1-R; [2]): 25%; % Inhibition of Binding hMC4-R (MC4-R; [2]): 92%; % Inhibition of Binding hMC2-R (hMC2-R): 41%; % Inhibition of Binding hMC2-R (hMC2-R; listed as Hept-Ser(Bzl)-D-Nal 2′-Arg-Nal 2′-Cys-NH2, 1 µM): 62%"
Heptanoyl-Ser(Bzl)-D-Phe(4′-Br)-Arg-Trp-Cys-NH2,,,% Inhibition of Binding MC1-R (MC1-R; 0.1 μM): 21%; % Inhibition of Binding hMC4-R (MC4-R; 0.1 μM): 90%
Heptanoyl-Ser(Bzl)-D-Phe(4′-Cl)-Arg-Asp(OcHx)-Cys-NH2,,,% Inhibition of Binding MC1-R (MC1-R; 0.1 μM): 15%; % Inhibition of Binding hMC4-R (MC4-R; 0.1 μM): 25%
Heptanoyl-Ser(Bzl)-D-Phe(4′-Cl)-Arg-Bip-Cys-NH2,65%,,% Inhibition of Binding hMC2-R (hMC2-R): 5%
Heptanoyl-Ser(Bzl)-D-Phe(4′-Cl)-Arg-Cys(Bzl)-Cys-NH2,30%,72%,
Heptanoyl-Ser(Bzl)-D-Phe(4′-Cl)-Arg-Hphe-Cys-NH2,38%,43%,
Heptanoyl-Ser(Bzl)-D-Phe(4′-Cl)-Arg-Nal 1′-Cys-NH2,,,% Inhibition of Binding MC1-R (MC1-R; 0.1 μM): 3%; % Inhibition of Binding hMC4-R (MC4-R; 0.1 μM): 47%
Heptanoyl-Ser(Bzl)-D-Phe(4′-Cl)-Arg-Nal 2′-Cys-Lys-NH2,,,% Inhibition of Binding MC1-R (MC1-R; 0.1 μM): 78%; % Inhibition of Binding hMC4-R (MC4-R; 0.1 μM): 97%
Heptanoyl-Ser(Bzl)-D-Phe(4′-Cl)-Arg-Nal 2′-Cys-NH2,,,% Inhibition of Binding MC1-R (MC1-R; 0.1 μM): 16%; % Inhibition of Binding hMC4-R (MC4-R; 0.1 μM): 94%
Heptanoyl-Ser(Bzl)-D-Phe(4′-Cl)-Arg-Phe(2′-Cl)-Cys-NH2,,,% Inhibition of Binding MC1-R (MC1-R; 0.1 μM): 9%; % Inhibition of Binding hMC4-R (MC4-R; 0.1 μM): 28%
Heptanoyl-Ser(Bzl)-D-Phe(4′-Cl)-Arg-Phe(2′-F)-Cys-NH2,,,% Inhibition of Binding MC1-R (MC1-R; 0.1 μM): 14%; % Inhibition of Binding hMC4-R (MC4-R; 0.1 μM): 46%
Heptanoyl-Ser(Bzl)-D-Phe(4′-Cl)-Arg-Phe(3′-Cl)-Cys-NH2,,,% Inhibition of Binding MC1-R (MC1-R; 0.1 μM): 27%; % Inhibition of Binding hMC4-R (MC4-R; 0.1 μM): 67%
Heptanoyl-Ser(Bzl)-D-Phe(4′-Cl)-Arg-Phe(3′-F)-Cys-NH2,,,% Inhibition of Binding MC1-R (MC1-R; 0.1 μM): 19%; % Inhibition of Binding hMC4-R (MC4-R; 0.1 μM): 43%
Heptanoyl-Ser(Bzl)-D-Phe(4′-Cl)-Arg-Phe-Cys-NH2,,,% Inhibition of Binding MC1-R (MC1-R; 0.1 μM): 11%; % Inhibition of Binding hMC4-R (MC4-R; 0.1 μM): 32%
Heptanoyl-Ser(Bzl)-D-Phe(4′-Cl)-Arg-Thr(Bzl)-Cys-NH2,4%,92%,

Substance,% Inhibition of Binding MC1-R (MC1-R; 1 μM),% Inhibition of Binding hMC4-R (MC4-R; 1 μM),also measured
"Heptanoyl-Ser(Bzl)-D-Phe(4′-Cl)-Arg-Tyr(2′,6′-diCl-Bzl)-Cys-NH2",19%,0%,
"Heptanoyl-Ser(Bzl)-D-Phe(4′-Cl)-Arg-Tyr(3′,5′-Di-l)-Cys-NH2",,,% Inhibition of Binding MC1-R (MC1-R; 0.1 μM): 10%; % Inhibition of Binding hMC4-R (MC4-R; 0.1 μM): 85%
Heptanoyl-Ser(Bzl)-D-Phe(4′-Cl)-Arg-Tyr(3′-l)-Cys-NH2,,,% Inhibition of Binding MC1-R (MC1-R; 0.1 μM): 12%; % Inhibition of Binding hMC4-R (MC4-R; 0.1 μM): 92%
Heptanoyl-Ser(Bzl)-D-Phe(4′-Cl)-Arg-Tyr(Bzl)-Cys-NH2,16%,85%,
Heptanoyl-Ser(Bzl)-D-Phe(4′-Cl)-Arg-Tyr-Cys-NH2,,,% Inhibition of Binding MC1-R (MC1-R; 0.1 μM): 6%; % Inhibition of Binding hMC4-R (MC4-R; 0.1 μM): 13%
Heptanoyl-Ser(Bzl)-D-Phe(4′-Cl)-Gly-Nal 2′-Cys-Lys-NH2,46%,5%,
Heptanoyl-[dP][dF]RWCK-NH2,88%,71%,
HyP(Bzl)-D-Phe(2′-Cl)-Nal 2′-Cys-NH2,57%,85%,
NH2-(CH2)6-CO-Ser(Bzl)-D-Phe(4′-Cl)-Arg-D-Trp-Cys-NH2,48%,97%,
Ph(CH2)2-CO-D-Phe(2′-Cl)-Lys-Nal 2′-Cys-NH2,0%,26%,
Ph(CH2)3-CO-D-Phe(2′-Cl)-Lys-Nal 2′-Cys-NH2,17%,33%,
Ph(CH2)-CO-D-Phe(2′-Cl)-Lys-Nal 2′-Cys-NH2,11%,22%,
PhCO-D-Phe(2′-Cl)-Lys-Nal 2′-Cys-NH2,60%,41%,
Phe-Arg-Trp-Cys-Lys-NH2 (FRWCK-NH2; not fully specified; printed as Phe-Arg-Trp-Cys-Lys-NH2),53%,64%,
Phe-Arg-Trp-Cys-Trp-NH2 (FRWCW-NH2; not fully specified; printed as Phe-Arg-Trp-Cys-Trp-NH2),32%,24%,
Ser(Bzl)-D-Phe(2′-Cl)-Lys-Nal 2′-Cys-NH2,33%,50%,
Ser(Bzl)-D-Phe(4′-Cl)-Arg-D-Trp-Cys-NH2,65%,82%,
Ser(Bzl)-D-Phe(4′-Cl)-Arg-Nal 2′-Cys-Lys-NH2,,,% Inhibition of Binding MC1-R (MC1-R; 0.1 μM): 33%; % Inhibition of Binding hMC4-R (MC4-R; 0.1 μM): 95%
Ser(Bzl)-D-Phe(4′-Cl)-Arg-Nal 2′-Cys-NH2,35%,99%,
[dF]RW[dC]K-NH2,23%,42%,
[dF]RW[dC]W-NH2,53%,45%,
[dF]R[dW]CK-NH2,66%,55%,
[dF]R[dW]CW-NH2,37%,32%,
